# Patent US3945993A, “Derivatives of polyene macrolide antibiotics” (Rutgers Research and Educational Foundation, priority 1971, dated 1976)
# Counter-ions that a name gives are not always drawn. Like-named read-outs stand apart in the source and are kept apart here.
# What was measured:
# [1] = Water solubility of acid salts of the esters by the dry weight method; type: physicochemical; conditions: acid addition salts (hydrochlorides); for solubility: water
# [2] = Qualitative solubility of esters and salts in water and organic solvents; type: physicochemical
# Saccharomyces cerevisiae = experiment: Minimum inhibitory concentration, in vitro antifungal potency (Saccharomyces cerevisiae); type: cell-based; conditions: for MIC: read-out: Min. Inhibitory Conc.
# Excerpt: (§1) As indicated, numerous tests have shown that the antimicrobial activity of the present derivatives, both in the immediate ester form of esterification and in the final water-soluble salt form, is substantially the same as that of the base antibiotics. […] In the table the numerical values represent minimum inhibitory concentration and thus the lower the value, the greater the activity in inhibiting growth of the organism.
# Aspergillus niger = experiment: Minimum inhibitory concentration (Aspergillus niger); type: cell-based
# Excerpt: as §1
# (§2) In the case of amphotericin B this set of tests was extended to other microorganisms: the minimum inhibitory concentrations in micrograms per ml. for amphotericin B and its methyl ester hydrochloride respectively were 0.5 and 0.5 against Candida albicans, 0.5 and 0.5 against Mucor rouxii, and 0.20 and 0.25 against Aspergillus niger.
# Mucor rouxii = experiment: Minimum inhibitory concentration (Mucor rouxii); type: cell-based; conditions: Amylomyces rouxii
# Excerpt: as §1, §2
# [3] = True water solubility of base polyene antibiotics by DMSO dilution and ultra-violet spectrum; type: physicochemical; conditions: for solubility: water
# [4] = True solution in water judged by ultra-violet spectrum (FIG. 5); type: physicochemical; conditions: 7 micrograms per ml. in water
# Excerpt: The true solubility of the present derivatives is further illustrated by FIG. 5, where curve A is the ultraviolet spectrum for amphotericin B methyl ester hydrochloride in water, 7 micrograms per ml., and curve B is a like spectrum for the same concentration of the base amphotericin B in water.
# [5] = test system: Saccharomyces cerevisiae, Candida albicans and Aspergillus niger; experiment: Standard in vitro tests of antimicrobial activity of derivative and base against representative organisms; type: cell-based; conditions: result in words
# Excerpt: as §1
# Candida albicans = experiment: Minimum inhibitory concentration (Candida albicans); type: cell-based
# Excerpt: as §1, §2
# [6] = base antibiotics, calculated from UV after ten fold dilution of saturated water solution with dimethyl sulfoxide
compound,measurement,setting,value
"CCOC(=O)[C@H]1[C@@H]2C[C@@H](O[C@@H]3O[C@H](C)[C@@H](O)[C@H](N)[C@@H]3O)/C=C/C=C/C=C/C=C/C=C/C=C/C=C/[C@H](C)[C@@H](O)[C@@H](C)[C@H](C)OC(=O)C[C@H](O)C[C@H](O)CC[C@@H](O)[C@H](O)C[C@H](O)C[C@](O)(C[C@@H]1O)O2 [Amphotericin B ethyl ester hydrochloride, amphotericin B ethyl ester hydrochloride]",solubility,[1],> 75 mg/mL
"COC(=O)[C@H]1[C@@H]2C[C@@H](O[C@@H]3O[C@H](C)[C@@H](O)[C@H](N)[C@@H]3O)/C=C/C=C/C=C/C=C/C=C/C=C/C=C/[C@H](C)[C@@H](O)[C@@H](C)[C@H](C)OC(=O)C[C@H](O)C[C@H](O)CC[C@@H](O)[C@H](O)C[C@H](O)C[C@](O)(C[C@@H]1O)O2 [Amphotericin B methyl ester, amphotericin B methyl ester]",solubility in ethyl acetate,[2]; ethyl acetate,slightly soluble
same,solubility in organic solvents,"[2]; methyl alcohol, ethyl alcohol, tetrahydrofurane, dimethyl formamide and dimethyl sulfoxide",soluble
same,solubility in petroleum ether and ethyl ether,[2]; petroleum ether and ethyl ether,insoluble
same,solubility in water (in words),[2]; water,slightly soluble
"C[C@@H]1[C@H](O)[C@@H](C)/C=C/C=C/C=C/C=C/C=C/C=C/C=C/[C@H](O[C@@H]2O[C@H](C)[C@@H](O)[C@H](N)[C@@H]2O)C[C@@H]2O[C@](O)(C[C@@H](O)C[C@@H](O)[C@H](O)CC[C@@H](O)C[C@@H](O)CC(=O)O[C@H]1C)C[C@H](O)[C@H]2C(=O)O [Amphotericin B, amphotericin B, reference compound]",MIC,Saccharomyces cerevisiae,0.25 µg/mL
same,MIC,Aspergillus niger,0.2 µg/mL
same,MIC,Mucor rouxii,0.5 µg/mL
same,solubility,"[3]; base antibiotics, calculated from UV after ten fold dilution of saturated water solution with dimethyl sulfoxide, read-out: Solubility in water",0.0017 mg/mL
same,state in water by ultraviolet spectrum,[4],did not dissolve and was therefore a mere dispersion
"C[C@@H]1[C@H](O)[C@@H](C)/C=C/C=C/CC/C=C/C=C/C=C/C=C/C(O[C@H]2O[C@H](C)[C@@H](O)[C@H](N)[C@@H]2O)CC2O[C@](O)(CC(O)C(O)CCC(O)CC(O)CC(O)CC(=O)O[C@H]1C)CC(O)C2C(=O)O (some centres unmarked) [Nystatin, reference compound]",Min. Inhibitory Conc.,Saccharomyces cerevisiae; in vitro,3.00 micrograms/ml.
same,Solubility in water,[3]; [6],0.039 mg/mL
COC(=O)C1C(O)CC2(O)CC(O)CC3OC3/C=C/C(=O)OC(C)C/C=C/C=C/C=C/C=C/C(OC3OC(C)C(O)C(N)C3O)CC1O2 (centres unmarked) [Pimaricin methyl ester hydrochloride],solubility,[1],> 80 mg/mL
COC(=O)C1C(O)CC2(O)CC(O)CC3OC3/C=C/C(=O)OC(C)C/C=C/C=C/C=C/C=C/C(OC3OC(C)C(O)C(N)C3O)CC1O2 (centres unmarked) [Pimaricin methyl ester],MIC,Saccharomyces cerevisiae; in vitro,4 µg/mL
"C[C@@H]1C/C=C/C=C/C=C/C=C/[C@H](O[C@@H]2O[C@H](C)[C@@H](O)[C@H](N)[C@@H]2O)C[C@@H]2O[C@](O)(C[C@@H](O)C[C@H]3O[C@@H]3/C=C/C(=O)O1)C[C@H](O)[C@H]2C(=O)O [Pimaricin, reference compound]",MIC,Saccharomyces cerevisiae; in vitro,3.5 µg/mL
same,solubility,[3],0.052 mg/mL
COC(=O)[C@H]1[C@@H]2C[C@@H](O[C@@H]3O[C@H](C)[C@@H](O)[C@H](N)[C@@H]3O)/C=C/C=C/C=C/C=C/C=C/C=C/C=C/[C@H](C)[C@@H](O)[C@@H](C)[C@H](C)OC(=O)C[C@H](O)C[C@H](O)CC[C@@H](O)[C@H](O)C[C@H](O)C[C@](O)(C[C@@H]1O)O2 [amphotericin B methyl ester hydrochloride],MIC,Saccharomyces cerevisiae,0.25 µg/mL
same,MIC,Aspergillus niger,0.25 µg/mL
same,antimicrobial activity compared with the base antibiotic,[5],"very substantial antimicrobial activity, essentially the same, i.e., quantitatively, as the base antibiotic"
same,MIC,Mucor rouxii,0.5 µg/mL
same,Solubility in water,[1]; hydrochloride,> 75 mg/mL
same,solubility,[1],> 75 mg/mL
same,MIC,Candida albicans,0.5 µg/mL
same,state in water by ultraviolet spectrum,[4],true solution in water
Candicidin [reference compound],Min. Inhibitory Conc.,Saccharomyces cerevisiae; in vitro,0.020 micrograms/ml.
same,Solubility in water,[3]; [6],0.032 mg/mL
Candicidin methyl ester hydrochloride,Min. Inhibitory Conc.,Saccharomyces cerevisiae; in vitro,0.025 micrograms/ml.
same,Solubility in water,[1],> 20.0 mg/mL
Candidin,Solubility in water,[3]; [6],0.116 mg/mL
Candidin methyl ester hydrochloride,Solubility in water,[1],> 50.0 mg/mL
Candimycin [reference compound],Min. Inhibitory Conc.,Saccharomyces cerevisiae; in vitro,0.025 micrograms/ml.
Candimycin methyl ester,Min. Inhibitory Conc.,Saccharomyces cerevisiae; in vitro,0.025 micrograms/ml.
Hamycin,Solubility in water,[3]; [6],0.032 mg/mL
Hamycin methyl ester hydrochloride,Solubility in water,[1],> 20.0 mg/mL
Mediocidin [reference compound],Min. Inhibitory Conc.,Saccharomyces cerevisiae; in vitro,0.035 micrograms/ml.
same,Solubility in water,[3]; [6],0.072 mg/mL
Mediocidin methyl ester,Min. Inhibitory Conc.,Saccharomyces cerevisiae; in vitro,0.030 micrograms/ml.
Nystatin methyl ester,Min. Inhibitory Conc.,Saccharomyces cerevisiae; in vitro,4.00 micrograms/ml.
Nystatin methyl ester hydrochloride,Solubility in water,[1],> 80.0 mg/mL
Trichomycin [reference compound],Min. Inhibitory Conc.,Saccharomyces cerevisiae; in vitro,0.030 micrograms/ml.
same,Solubility in water,[3]; [6],0.046 mg/mL
Trichomycin methyl ester hydrochloride,Min. Inhibitory Conc.,Saccharomyces cerevisiae; in vitro,0.030 micrograms/ml.
same,Solubility in water,[1],> 20.0 mg/mL
mediocidin methyl ester hydrochloride,Solubility in water,[1],> 50.0 mg/mL
